# “And” between values parts separate entries of the source, which are not always exact repeats. Equal entries are not always repeated. Where two headings read alike, the source gives them in different places.
# Legend:
# Type in all cases: cell-based
# [1] = biological target: T1, (α4H116A)3(β2)2 nAChR (Homo sapiens, UniProt P17787+P43681, H142A); experiment: Two-electrode voltage-clamp, oocytes expressing (α4H116A)3(β2)2 nAChR
# T1 construct: expressed in transfected cells; host or cells: Xenopus laevis oocytes injected with cRNA, 8:1 α4:β2
# Protocol: (§1) Oocytes-positive female Xenopus laevis were purchased from NASCO, and all procedures were performed according to an animal use protocol approved by the Institutional Animals Care and Use Committee of The University of Texas Health Science Center at Tyler. Ovarian lobules were surgically harvested, treated with collagenase type 2, and Stage V and VI oocytes were visually selected and maintained at 18 °C in modified ND96-gentamicin buffer (96 mM NaCl, 2 mM KCl, 1.8 mM CaCl2, 1 mM MgCl2, 5 mM Hepes, and 50 μg/ml gentamicin, pH 7.6).
# (§2) pSP64 Poly(A) plasmids with cDNA encoding for human α4 or β2 nAChR subunit were used to prepare cRNA transcripts suitable for oocyte expression. The plasmids were linearized with AseI (hα4) and PvuII (hβ2), then cRNA transcripts were prepared in vitro using mMESSAGE mMACHINE high yield-capped RNA transcription kits (Ambion, Thermo Fisher Scientific), purified on NucAway Spin column (Invitrogen, Thermo Fisher Scientific), and stored at −80 °C until used. Point mutations within the plasmid encoding the α4 nAChR subunit were introduced using QuikChange II Site-Directed Mutagenesis Kit (Agilent Technologies), as described previously ([28]). To generate amino acid substitutions (K64T, E66I, H116V, H116L, and H116A), two custom-designed complementary oligos containing the desired mutation were used (Integrated DNA Technologies). The forward primers were as the following with the codon for mutated amino acids are underlined and nucleotide(s) changes are bolded and italicized:
# (§3) The oocytes were injected with 10 to 50 ng of a cRNA mix containing α4 (WT or mutant) and β2 RNAs at ratios of 8:1(α4:β) or 1:8 (α4:β2) to bias expression toward (α4)3(β2)2 or (α4)2(β2)3 nAChRs, respectively. The injection of oocytes with RNAs mixture containing four folds or higher α4 RNA than β2 RNA have been established to express receptor population that is made up of three α4 and two β2 subunits ([9], [12], [28], [43], [44], [45]).
# 24 to 72 h after cRNA injection, Xenopus oocytes were placed in a custom-made recording chamber that is connected to an eight-channel automated perfusion system (Warner Instruments) and perfused with recording buffer (100 mM NaCl, 2 mM KCl, 1 mM CaCl2, 0.8 mM MgCl2, 1 mM EGTA, and 10 mM Hepes, pH 7.5). Unless otherwise specified in figure legends, each recording run included several drug applications (10 s of an agonist with or without CMPI or NS9283) separated by 3 to 4 min buffer wash intervals. Between recording runs, the oocytes were washed with recording buffer for at last 5 min. The oocytes were voltage-clamped at −50 mV using Oocyte Clamp OC-725B (Warner Instruments). The currents were digitized using Digidata 1550A (Axon Instruments, Molecular Devices), and the peak currents were quantified using pCLAMP 10 (Axon Instruments), then normalized and analyzed using Excel 2010 (Microsoft) and SigmaPlot 11.0 (Systat Software). For NS9283 and CMPI potentiation of agonist-induced responses, the peak currents were normalized to current elicited by agonist alone applied within the same recording run. For the effect of coapplication of 1 μM NS9283 or CMPI on agonist concentration-response curve, the peak currents were normalized to current elicited by saturating concentration of agonist applied within the same recording run. […] I0 = 100 for NS9283 and CMPI potentiation of agonist-induced responses and I0 = 0 for agonist concentration-response experiments. The best-fit values for Imax and EC50 ± SD are presented.
# [2] = biological target: T2, (α4K64T)3(β2)2 nAChR (Homo sapiens, UniProt P17787+P43681, K90T); experiment: Two-electrode voltage-clamp, oocytes expressing (α4K64T)3(β2)2 nAChR
# T2 construct: expressed in transfected cells; host or cells: Xenopus laevis oocytes injected with cRNA, 8:1 α4:β2
# Protocol: as §1, §2, §3
# (§4) 24 to 72 h after cRNA injection, Xenopus oocytes were placed in a custom-made recording chamber that is connected to an eight-channel automated perfusion system (Warner Instruments) and perfused with recording buffer (100 mM NaCl, 2 mM KCl, 1 mM CaCl2, 0.8 mM MgCl2, 1 mM EGTA, and 10 mM Hepes, pH 7.5). Unless otherwise specified in figure legends, each recording run included several drug applications (10 s of an agonist with or without CMPI or NS9283) separated by 3 to 4 min buffer wash intervals. Between recording runs, the oocytes were washed with recording buffer for at last 5 min. […] The currents were digitized using Digidata 1550A (Axon Instruments, Molecular Devices), and the peak currents were quantified using pCLAMP 10 (Axon Instruments), then normalized and analyzed using Excel 2010 (Microsoft) and SigmaPlot 11.0 (Systat Software). […]
# [3] = biological target: T3, (α4E66I)3(β2)2 nAChR (Homo sapiens, UniProt P17787+P43681, E92I); experiment: Two-electrode voltage-clamp, oocytes expressing (α4E66I)3(β2)2 nAChR
# T3 construct: expressed in transfected cells; host or cells: Xenopus laevis oocytes injected with cRNA, 8:1 α4:β2
# Protocol: as §1, §2, §3, §4
# [4] = biological target: T4, (α4H116L)3(β2)2 nAChR (Homo sapiens, UniProt P17787+P43681, H142L); experiment: Two-electrode voltage-clamp, oocytes expressing (α4H116L)3(β2)2 nAChR
# T4 construct: expressed in transfected cells; host or cells: Xenopus laevis oocytes injected with cRNA, 8:1 α4:β2
# Protocol: as §1, §2, §3, §4
# [5] = biological target: T5, (α4H116V)3(β2)2 nAChR (Homo sapiens, UniProt P17787+P43681, H142V); experiment: Two-electrode voltage-clamp, oocytes expressing (α4H116V)3(β2)2 nAChR
# T5 construct: expressed in transfected cells; host or cells: Xenopus laevis oocytes injected with cRNA, 8:1 α4:β2
# Protocol: as §1, §2, §3, §4
# [6] = biological target: T6, (α4)3(β2)2 nAChR (Homo sapiens, UniProt P17787+P43681); experiment: Mechanistic (Monod-Wyman-Changeux two-state model) analysis of current responses, WT (α4)3(β2)2 nAChR
# T6 construct: expressed in transfected cells; host or cells: Xenopus laevis oocytes injected with cRNA, 8:1 α4:β2
# Description: To gain mechanistic insight into receptor activation in the presence of CMPI, we analyzed the currents in the framework of a cyclic two-state (resting and active) allosteric activation model ([31], [32], [33]). In this model, channel opening is mediated by stabilization of the active state by an agonist that, by definition, has higher affinity to the active than resting state.
# We commenced by converting the raw amplitudes of current responses to units of probability of being in the active state (PA units).
# Further analysis of electrophysiological data was conducted in the framework of the two-state concerted transition model, adapted from the MWC cyclic model originally used to describe enzyme function ([31], [32], [33]). The raw peak amplitudes of current responses were converted to units of probability of being in the active state (PA).
# The numbers of α4:β2 and α4:α4 binding sites (Nα4:β2 and Nα4:α4) were constrained to 2 and 1, respectively.
# The concentration-response curve for TC-2559 was fitted to the following equation:(3) PA=1/1+L[1+[TC-2559]/KR,TC-2559,α4:β2/1+[TC-2559]/(KR,TC-2559,α4:β2cTC-2559,α4:β2)]^Nα4:β2
# The concentration-response data were analyzed using Equation 3, with the value of L modified to reflect receptor activation by TC-2559, and the affinity and efficacy terms in the equation reflecting the values for CMPI. The number of binding sites for CMPI in Equation 3 was constrained to 1.
# Curve fitting was done using Origin 2020 (OriginLab Corp). The results are reported as best-fit parameter ±SD of the fit. All data are included in the analysis.
# T6 sequence (P43681 27-627): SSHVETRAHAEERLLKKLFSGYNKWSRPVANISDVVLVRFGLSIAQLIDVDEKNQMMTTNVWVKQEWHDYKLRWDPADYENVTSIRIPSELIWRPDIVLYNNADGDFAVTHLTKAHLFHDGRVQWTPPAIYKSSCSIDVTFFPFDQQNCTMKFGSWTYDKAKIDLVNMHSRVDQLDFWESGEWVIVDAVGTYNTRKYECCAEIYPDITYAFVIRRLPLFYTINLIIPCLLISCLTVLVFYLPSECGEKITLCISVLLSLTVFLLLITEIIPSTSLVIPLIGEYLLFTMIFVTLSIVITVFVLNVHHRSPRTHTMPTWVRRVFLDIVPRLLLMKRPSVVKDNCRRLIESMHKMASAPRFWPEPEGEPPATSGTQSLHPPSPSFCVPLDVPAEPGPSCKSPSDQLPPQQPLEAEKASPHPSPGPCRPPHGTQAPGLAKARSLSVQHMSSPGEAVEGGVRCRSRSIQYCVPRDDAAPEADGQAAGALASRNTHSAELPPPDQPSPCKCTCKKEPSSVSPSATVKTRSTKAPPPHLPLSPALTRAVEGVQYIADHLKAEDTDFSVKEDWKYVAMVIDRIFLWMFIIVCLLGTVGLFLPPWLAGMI
# T6 sequence (P17787 26-502): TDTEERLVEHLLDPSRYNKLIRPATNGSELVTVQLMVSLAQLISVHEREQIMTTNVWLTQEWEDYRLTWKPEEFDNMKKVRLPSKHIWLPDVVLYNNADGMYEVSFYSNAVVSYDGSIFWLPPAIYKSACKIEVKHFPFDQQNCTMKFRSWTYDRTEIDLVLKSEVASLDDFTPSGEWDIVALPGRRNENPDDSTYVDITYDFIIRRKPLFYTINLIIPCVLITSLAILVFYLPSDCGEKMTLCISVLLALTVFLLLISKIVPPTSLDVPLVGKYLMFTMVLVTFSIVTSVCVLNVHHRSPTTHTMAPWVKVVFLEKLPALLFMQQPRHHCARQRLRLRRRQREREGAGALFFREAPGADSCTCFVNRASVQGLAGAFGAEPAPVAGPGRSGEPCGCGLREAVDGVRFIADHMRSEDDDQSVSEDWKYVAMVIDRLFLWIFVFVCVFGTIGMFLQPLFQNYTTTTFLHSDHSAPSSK
# T1 sequence (P43681 27-627 H142A): as the sequence (P43681 27-627) above, with H116A counted along it
# T1 sequence (P17787 26-502): as the sequence (P17787 26-502) above
# T4 sequence (P43681 27-627 H142L): as the sequence (P43681 27-627) above, with H116L counted along it
# T4 sequence (P17787 26-502): as the sequence (P17787 26-502) above
# T2 sequence (P43681 27-627 K90T): as the sequence (P43681 27-627) above, with K64T counted along it
# T2 sequence (P17787 26-502): as the sequence (P17787 26-502) above
# T3 sequence (P43681 27-627 E92I): as the sequence (P43681 27-627) above, with E66I counted along it
# T3 sequence (P17787 26-502): as the sequence (P17787 26-502) above
# T5 sequence (P43681 27-627 H142V): as the sequence (P43681 27-627) above, with H116V counted along it
# T5 sequence (P17787 26-502): as the sequence (P17787 26-502) above
structure (smiles),measurement,setting,value
"Cc1c(-c2cc(-c3ccccc3Cl)no2)cnn1C1CCNCC1 [CMPI, 3-(2-chlorophenyl)-5-(5-methyl-1-(piperidin-4-yl)-1H-pyrrazol-4-yl)isoxazole]","potentiation fold (Ave ± SD), agonist + 1 μM modulator / agonist alone",[1]; ACh (1 mM),1.07 ± 0.13
same,"potentiation fold (Ave ± SD), agonist + 1 μM modulator / agonist alone",[1]; TC 2559 (30 μM),0.74 ± 0.13
same,"Imax of potentiation, % of control","[1]; TC-2559-induced current, normalized to 1 μM TC-2559",634 ± 77%
same,EC50,"[1]; normalized to 1 μM TC-2559, read-out: EC50 of potentiation of TC-2559-induced current",200 ± 100 nM
same,"potentiation fold (Ave ± SD), agonist + 1 μM modulator / agonist alone",[2]; ACh (1 mM),0.91 ± 0.08
same,"potentiation fold (Ave ± SD), agonist + 1 μM modulator / agonist alone",[2]; TC 2559 (30 μM),1.17 ± 0.21
same,"potentiation fold (Ave ± SD), agonist + 1 μM modulator / agonist alone",[3]; ACh (1 mM),0.83 ± 0.10
same,"potentiation fold (Ave ± SD), agonist + 1 μM modulator / agonist alone",[3]; TC 2559 (30 μM),0.99 ± 0.15
same,"potentiation fold (Ave ± SD), agonist + 1 μM modulator / agonist alone",[4]; ACh (1 mM),0.82 ± 0.05
same,"potentiation fold (Ave ± SD), agonist + 1 μM modulator / agonist alone",[4]; TC 2559 (30 μM),4.58 ± 0.24
same,"potentiation fold (Ave ± SD), agonist + 1 μM modulator / agonist alone",[5]; ACh (1 mM),0.76 ± 0.05
same,"potentiation fold (Ave ± SD), agonist + 1 μM modulator / agonist alone",[5]; TC 2559 (30 μM),3.01 ± 0.39
same,free energy change toward stabilization of the active state,"[6]; CMPI at the α4:α4 interface, from 1 μM TC-2559 background dataset",-1.42 kcal/mol
same,ΔGgating,"[6]; CMPI at the α4:α4 site, from mean parameters",-1.35 kcal/mol
same,"cCMPI,α4:α4",[6]; background of 1 μM TC-2559,0.090 ± 0.004
same,Kd,"[6]; background of 1 μM TC-2559, 0.01 to 3 μM CMPI, read-out: KR,CMPI,α4:α4",170 ± 30 nM
same,"cCMPI,α4:α4",[6]; background of 1 μM cytisine,0.074 ± 0.009
same,Kd,"[6]; background of 1 μM cytisine, read-out: KR,CMPI,α4:α4",430 ± 170 nM
same,"cCMPI,α4:α4",[6]; background of 1 μM nicotine,0.065 ± 0.007
same,Kd,"[6]; background of 1 μM nicotine, read-out: KR,CMPI,α4:α4",400 ± 100 nM
same,"cCMPI,α4:α4",[6]; background of 10 μM ACh,0.145 ± 0.008
same,Kd,"[6]; background of 10 μM ACh, read-out: KR,CMPI,α4:α4",290 ± 60 nM
same,"cCMPI,α4:α4",[6]; background of 10 μM TC-2559,0.129 ± 0.009
same,Kd,"[6]; background of 10 μM TC-2559, read-out: KR,CMPI,α4:α4",90 ± 20 nM
same,Kd,"[6]; five approaches, read-out: KR,CMPI,α4:α4, range of estimates",90 to 430 nM
same,"mean cCMPI,α4:α4",[6]; mean of the five approaches,0.101 ± 0.035 and 0.101
same,Kd,"[6]; mean of the five approaches, read-out: mean KR,CMPI,α4:α4",280 ± 150 nM
